Assay results: US20240165154A1, “METHODS AND AGENTS FOR MODULATING ADOPTIVE IMMUNOTHERAPY” (The Regents of the University of California, priority 2021, published 2024)

Tests used:
[1] = system: B16 melanoma cell line constitutively expressing GFP; test: B16 melanoma proliferation/survival assay in HG, LG, LG+C (GFP positivity as proxy for viability); assay type: cell-based; conditions: starvation (low glucose, LG) conditions + cellobiose (+C)
From the text: The protocol for proliferation of the B16 melanoma tumor cell line (FIG. 19) constitutively expressing GFP is identical to the other proliferation assays described above, minus the prior transfection with plasmids.
In order to study the effects of cellobiose on tumors, the high glucose (HG), low glucose (LG), and low glucose+cellobiose (LG+C) in vitro studies of FIGS. 18A-18B were repeated using a B16 melanoma cell line constitutively expressing GFP.

[2] = after intravenous infusion; cited from earlier work
[3] = system: CD8+ T cells from spleens of BL/6J mice; test: T cell proliferation assay (CELLTRACE Violet) of MSCV-transduced CD8+ T cells in metabolic conditions; assay type: cell-based, mouse; conditions: 48 hr
Experimental: Spleens from BL/6J mice (Jackson Laboratory #000664; https://www.jax.org/strain/000664) were harvested, minced, resuspended in fluorescence-activated cell sorting (FACS) buffer (phosphate buffered saline (PBS)+2% fetal bovine serum (FBS)+1 mM ethylene diamine tetra-acetic acid (EDTA) (THERMOFISHER SCIENTIFIC™, #15575020)), and strained through a 40-micron nylon mesh filter (Millipore Sigma, CLS431750-50EA). The cellular suspension was then centrifuged at 600× g for 10 minutes before isolating CD8+ T cells using standard protocol from an immunomagnetic separation kit (EASYSEP™ Mouse CD8+ T Cell Isolation Kit, STEMCELL™ Technologies, #19853).
For activation, 5×10^6 stained CD8+ T cells were resuspended in 1 mL of complete T cell medium (RPMI 1640+10% fetal bovine serum (FBS)+1 mM Na Pyruvate+10 mM 4-(2-hydroxyethyl)-1-piperazineethanesulfonic acid (HEPES)+1% penicillin/streptomycin (pen/strep)+0.1% beta-mercaptoethanol) supplemented with 2 ug/mL anti-CD28 clone 37.51 (BIOXCELL™, #BE0015-1) and plated into one well of a 12 well plate coated with 10 micrograms/mL (μg/mL) of anti-CD3e clone 2C11 (BIOXCELL™, #BE0001-1). 24 hours later, plates were lightly spun down at 100× g for 2 minutes, before removing 800 ul of supernatant. 1 mL of T cell media containing concentrated virus was then overlaid, before centrifugation at 800×g for 1 hour at 32C (32° C.). […]

## O=C[C@H](O)[C@@H](O)[C@H](O[C@@H]1O[C@H](CO)[C@@H](O)[C@H](O)[C@H]1O)[C@H](O)CO [cellobiose]
[1]
  B16 melanoma tumor survival (GFP positivity as proxy for cell viability): did not promote B16 melanoma tumor survival
[2]
  excretion in the urine: vast majority of cellobiose is excreted in the urine
[3]; low glucose + cellobiose (LG+C) vs low glucose
  T-cell proliferation (CELLTRACE VIOLET) of mCh+ GFP+ cells co-transduced with CDT-1 and GH1-1: rescued T-cell proliferation
[3]; low glucose environment when cellobiose was added
  wild-type (WT) T-cell proliferation: minor increase
